The record followed here is PubChem BioAssay AID1996.

Broadly, the solubility (kinetic) is the concentration staying in solution when a stock, usually in DMSO, is diluted into the medium.

SMILES strings stand for the structures. Values after ≈ are worked out from the molar mass of the structure shown.

The conditions of this data set: buffer; pH 7.4; 200.0 µM.
For the molecule `Cc1ccc(S(=O)(=O)NC(C)(C)CN2CCCCC2)cc1`, the kinetic solubility was above 46.6 µg/mL.

In turn, `CSc1ccccc1NC(=S)NC1CCCCC1` yielded a solubility (kinetic) of 30 µg/mL (≈ 107 µM).

`CC1Oc2ccccc2N(Cc2cccc(F)c2)C1=O` (stereo not drawn): the kinetic solubility is 18.6 µg/mL (≈ 68.6 µM).

`CCOc1ccc(N2CC(C(=O)NC3CCCCCC3)CC2=O)cc1` (stereo not drawn): the solubility (kinetic) amounted to 15.2 µg/mL (≈ 44.1 µM).

For the molecule `CCOc1ccc(C(C)NC(=O)C2CCCC2)cc1` (stereo not drawn), the solubility (kinetic) is above 39.2 µg/mL.

With `COc1cccc(C(=O)C(C#N)=C(SC)SC)c1`, the solubility (kinetic) came to 33.6 µg/mL (≈ 120 µM).

Take `COc1ccc(/C=C2\Oc3cc(OC(=O)N4CCOCC4)ccc3C2=O)cc1`: the kinetic solubility is below 0.8 µg/mL.

`Cl.c1ccc(NCc2cccc3ccccc23)nc1` came in with a kinetic solubility of 4.1 µg/mL.

In turn, `CC(=O)c1cccc(NC2c3ccccc3C(=O)N2Cc2ccco2)c1` (stereo not drawn) came in with a solubility (kinetic) of 43.3 µg/mL (≈ 125 µM).

As for `NC(=S)c1cc2cc(Br)ccc2oc1=O`, the kinetic solubility was below 0.6 µg/mL.

In turn, `CC(=O)Nc1cccc(NC(=O)Cc2cccs2)c1` registered a solubility (kinetic) of 28.4 µg/mL (≈ 104 µM).

For the molecule `Cc1ccc(NC(=O)NCc2ccccn2)cc1Cl`, the solubility (kinetic) is above 41.4 µg/mL.

As for `Cc1cc(C)c(C(=O)COC(=O)c2c(C)noc2C)cc1C`, the kinetic solubility came out at 7.1 µg/mL (≈ 23.6 µM).

The molecule `NC(=O)CCN1CCN(S(=O)(=O)/C=C/c2ccccc2)CC1` registered a kinetic solubility of 42.4 µg/mL (≈ 131 µM).

In the case of `CNc1snc(C)c1C(=O)OCC(=O)NCc1ccccc1OC`, the kinetic solubility was found to be 3.8 µg/mL (≈ 10.9 µM).

Consider `O=C(O)CNC(=O)/C(=C\c1ccco1)NC(=O)c1ccco1`, for which the solubility (kinetic) was above 45.6 µg/mL.

`CCOc1ccccc1NC(=O)c1cccc(N2C(=O)CCC2=O)c1` showed a solubility (kinetic) above 50.8 µg/mL.

`COc1ccc(C(=O)Nc2cccc3nc(C)ccc23)c(OC)c1` displayed a solubility (kinetic) of 11.7 µg/mL (≈ 36.3 µM).

Consider `COc1ccccc1OCC(O)CN1CCOCC1` (stereo not drawn), for which the kinetic solubility amounted to 37.4 µg/mL (≈ 140 µM).

As to `CCCNC(=S)Nc1cc2oc3ccccc3c2cc1OC`, the kinetic solubility was found to be 0.4 µg/mL (≈ 1.27 µM).

`CCN(CC)C(=O)Cn1cc(C(=O)C2CC2)c2ccccc21` displayed a kinetic solubility above 44.8 µg/mL.

Molecule `CCCCN1C(C)=CC(=C2C(=O)c3ccccc3C2=O)C=C1C` displayed a kinetic solubility below 0.7 µg/mL.

`CC(C)(C)NC(=O)Cn1c(SCC(=O)NC2CCCC2)nc2ccccc21` displayed a kinetic solubility of 52.9 µg/mL (≈ 136 µM).

`Cn1c(N)c(C(=O)COC(=O)/C=C/c2cccc(Cl)c2)c(=O)n(C)c1=O` returned a kinetic solubility of 3.3 µg/mL (≈ 8.74 µM).

`O=C(COC(=O)C1CCC1)NCCc1ccc(Cl)cc1Cl` came in with a kinetic solubility above 49.5 µg/mL.

Molecule `Nc1nc(SC23CC4CC(CC(C4)C2)C3)ns1` showed a solubility (kinetic) below 0.2 µg/mL.

As for `CCOc1ccccc1NC(=O)Nc1ccsc1C(=O)OC`, the kinetic solubility was determined as 7.9 µg/mL (≈ 24.7 µM).

`COc1ccc(CCNC(=O)C2(c3ccccc3)CC2)cc1` registered a kinetic solubility of 43.8 µg/mL (≈ 148 µM).

`COc1ccc(NC(=S)N2c3ccccc3CC2C)cc1OC` (stereo not drawn): the solubility (kinetic) is 42.4 µg/mL (≈ 129 µM).

For `Cn1nccc1C(=O)N1CCC(Cc2ccccc2)CC1`, the solubility (kinetic) is above 42.5 µg/mL.

`N#C/C(=C\c1ccc(F)c(Cl)c1)S(=O)(=O)c1ccccn1` gave a kinetic solubility of 44 µg/mL (≈ 136 µM).

The molecule `O=C(Nc1ccc2c(c1)OCCO2)c1ccc(Cl)cc1Cl` registered a kinetic solubility of 3.5 µg/mL (≈ 10.8 µM).

Regarding `Cc1cc(OCC(=O)N2CCCN(C)CC2)ccc1Cl`, the solubility (kinetic) was above 44.5 µg/mL.

Turning to `Cl.NC(N)=NC(N)=Nc1cccc(Cl)c1`, the kinetic solubility was above 37.2 µg/mL.

As for `O=C(O)CC1SC(=O)N(CC(=O)c2ccccc2)C1=O` (stereo not drawn), the solubility (kinetic) was above 44 µg/mL.

Molecule `CN(C)c1ccc(/C=N/NC(=O)c2ccn(C)n2)cc1` came in with a kinetic solubility above 40.7 µg/mL.

`COc1ccc(C(=O)NCC2OCCc3ccccc32)cc1OC` (stereo not drawn) registered a solubility (kinetic) of 11.8 µg/mL (≈ 36 µM).

With `CCC(=O)Nc1sc2c(c1C#N)CCC2`, the solubility (kinetic) was determined as 12.3 µg/mL (≈ 55.8 µM).

In turn, `CCN(Cc1ccncc1)Cc1ccc(OC)cc1OC.O=C(O)C(=O)O` came in with a kinetic solubility of 43.5 µg/mL.

In turn, `CN(C)c1cc(Nc2ccc(O)cc2)c([N+](=O)[O-])c2nonc12` showed a solubility (kinetic) of 0.7 µg/mL (≈ 2.22 µM). This solubility kinetic is about 62-fold lower than that of the molecule before.

As for `O=C(COC(=O)c1ccc([N+](=O)[O-])o1)NC1CCCC1`, the solubility (kinetic) amounted to 39.2 µg/mL (≈ 139 µM).

For `Cc1c2c(nc3ccccc13)CC(C)(C)CC2=O.Cl`, the kinetic solubility was 36.8 µg/mL.

As to `CC(C)(C)NC(=O)c1ccccc1-c1nc2ccccc2s1`, the kinetic solubility is 35.6 µg/mL (≈ 115 µM).

On to `COc1ccc(-c2cc(C(=O)Nc3ccc(C)c(C)c3)no2)cc1`, for which the kinetic solubility is below 0.3 µg/mL.

Take `Cc1noc(C)c1C(=O)NCc1ccccc1F`: the solubility (kinetic) was determined as 34.7 µg/mL (≈ 140 µM).

Take `CC(C)(C)C1COc2ccccc2N1C(=O)c1ccccc1Cl` (stereo not drawn): the kinetic solubility was below 0.7 µg/mL.

Regarding `O=C(C(=O)N1CCCCCC1)c1c[nH]c2ccccc12`, the kinetic solubility is above 40.5 µg/mL.

Molecule `CCOC(=O)c1cc2c(nc1N)CCCC2` showed a solubility (kinetic) of 24.7 µg/mL (≈ 112 µM).

On to `COc1ccc(C(=O)NCCc2ccc(F)cc2)cc1OC`, for which the solubility (kinetic) is above 45.5 µg/mL.

In turn, `N#Cc1ccc(NC(=O)CN2CCCCCC2)cc1Cl` displayed a kinetic solubility of 26.4 µg/mL (≈ 90.5 µM).

In the case of `CC(=O)NCCc1nc2cc(NC(=O)c3ccc(Cl)cc3)ccc2n1C`, the solubility (kinetic) is 35.7 µg/mL (≈ 96.3 µM).

In the case of `Nc1cc(C(=O)OCC(=O)Nc2cccc(S(=O)(=O)N3CCOCC3)c2)ccc1Cl`, the kinetic solubility was 24.4 µg/mL (≈ 53.8 µM).

With `COc1cccc(C(=O)CC(=O)C(=O)Nc2cccc([N+](=O)[O-])c2C)c1`, the solubility (kinetic) was 31.6 µg/mL (≈ 88.7 µM). This solubility kinetic and that of the molecule before are within 1.5-fold of each other.
